Measurements published in ChEMBL document CHEMBL1201862, “PubChem BioAssay data set” (2004).
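All cell lines were grown in 96-well plates and treated with compound for 48 hours. GI50 = concentration required for 50% inhibition of growth.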 Calls of active or inactive are those of the source. No stated cut-off is given here; in the data, active = GI50 up to about 1.1 µM and inactive = higher.

Tests used:
Assay in all cases: DTP human tumour cell line panel, 48 h
[1] = system: HT-29
[2] = system: K562
[3] = system: KM12
[4] = system: COLO 205
[5] = system: DU-145
[6] = system: 786-0
[7] = system: UACC-62
[8] = system: OVCAR-3
[9] = system: SNB-19
[10] = system: HOP-62
[11] = system: MOLT-4
[12] = system: RPMI-8226
[13] = system: IGROV-1
[14] = system: A549
[15] = system: RXF 393
[16] = system: MDA-MB-435
[17] = system: UACC-257
[18] = system: OVCAR-4
[19] = system: SNB-75
[20] = system: HOP-92

Compound | GI50 [1] | GI50 [2] | GI50 [3] | GI50 [4] | GI50 [5] | GI50 [6] | GI50 [7] | GI50 [8] | GI50 [9] | GI50 [10] | GI50 [11] | GI50 [12] | GI50 [13] | GI50 [14] | GI50 [15] | GI50 [16] | GI50 [17] | GI50 [18] | GI50 [19] | GI50 [20]
O=C(NC(C(F)(F)F)(C(F)(F)F)P(=O)(Cc1ccccc1)Cc1ccccc1)C(C(F)(F)F)C(F)(F)F | 19.8 µM (inactive) | 23 µM (inactive) | 19.5 µM (inactive) | 18.4 µM (inactive) | 37.8 µM (inactive) | 17.2 µM (inactive) | 27.2 µM (inactive) | 31.6 µM (inactive) | 27.7 µM (inactive) | 20.6 µM (inactive) | 16.9 µM (inactive) | 25.2 µM (inactive) | 18.5 µM (inactive) | 25.9 µM (inactive) | 21 µM (inactive) | 17.4 µM (inactive) | 22.6 µM (inactive) |  |  | 
COc1ccc(/C=N/NC(=O)O)cc1 | > 100 µM (inactive) | > 100 µM (inactive) | > 100 µM (inactive) | > 100 µM (inactive) | > 100 µM (inactive) | > 100 µM (inactive) | > 100 µM (inactive) | > 100 µM (inactive) | > 100 µM (inactive) | > 100 µM (inactive) | > 100 µM (inactive) | > 100 µM (inactive) | > 100 µM (inactive) | > 100 µM (inactive) | > 100 µM (inactive) | > 100 µM (inactive) | > 100 µM (inactive) | > 100 µM (inactive) | > 100 µM (inactive) | 
O=C(O)c1ccccc1/C=N\N=C1NCCCCN1 | > 100 µM (inactive) | > 100 µM (inactive) | > 100 µM (inactive) | > 100 µM (inactive) | > 100 µM (inactive) | > 100 µM (inactive) | > 100 µM (inactive) | > 100 µM (inactive) | > 100 µM (inactive) | > 100 µM (inactive) | > 100 µM (inactive) | > 100 µM (inactive) | > 100 µM (inactive) | > 100 µM (inactive) |  | > 100 µM (inactive) | > 100 µM (inactive) | > 100 µM (inactive) | > 100 µM (inactive) | 
NC1CC(=O)c2c(Br)csc21 (stereo not drawn) | 40.6 µM (inactive) | 50.1 µM (inactive) | 32.1 µM (inactive) | 58.1 µM (inactive) | > 100 µM (inactive) | 82 µM (inactive) | 21.3 µM (inactive) | 50.6 µM (inactive) | 36.3 µM (inactive) | 49.8 µM (inactive) | 46.6 µM (inactive) | 38.5 µM (inactive) | 33 µM (inactive) | > 100 µM (inactive) | 54.7 µM (inactive) | 21.2 µM (inactive) | 40.2 µM (inactive) |  | 96.2 µM (inactive) | 
C[N+]1([O-])[C@H]2CC(OC(=O)[C@H](CO)c3ccccc3)C[C@H]1[C@H]1O[C@H]12 (stereo partly drawn) | > 100 µM (inactive) | > 100 µM (inactive) | > 100 µM (inactive) | > 100 µM (inactive) | > 100 µM (inactive) | > 100 µM (inactive) | > 100 µM (inactive) | > 100 µM (inactive) | > 100 µM (inactive) | > 100 µM (inactive) | > 100 µM (inactive) | > 100 µM (inactive) | > 100 µM (inactive) | > 100 µM (inactive) | > 100 µM (inactive) | > 100 µM (inactive) | > 100 µM (inactive) | > 100 µM (inactive) | > 100 µM (inactive) | 
CC12CC(=O)C3C(C(=O)C1)C32C (stereo not drawn) | > 100 µM (inactive) | > 100 µM (inactive) | 0.488 µM (active) | > 100 µM (inactive) | > 100 µM (inactive) | > 100 µM (inactive) | > 100 µM (inactive) | > 100 µM (inactive) | > 100 µM (inactive) | > 100 µM (inactive) | > 100 µM (inactive) | > 100 µM (inactive) | > 100 µM (inactive) | > 100 µM (inactive) | > 100 µM (inactive) | > 100 µM (inactive) | > 100 µM (inactive) | > 100 µM (inactive) | 45.3 µM (inactive) | 
CCCCP(CCCC)(CCCC)=C(C(=O)OC)C(C(=O)OC)=C1SC(C(=O)OC)=C(C(=O)OC)S1 | 14.5 µM (inactive) |  |  | 17 µM (inactive) | 40.8 µM (inactive) | 17.8 µM (inactive) | 14.1 µM (inactive) | 19.3 µM (inactive) | 20.3 µM (inactive) | 20.4 µM (inactive) | 11.9 µM (inactive) | 63.2 µM (inactive) | 11.6 µM (inactive) | 17.6 µM (inactive) | 10.3 µM (inactive) | 14.8 µM (inactive) | 17.6 µM (inactive) | 16.2 µM (inactive) | 17.5 µM (inactive) | 
c1ccc2c(CCNC3=NCCO3)cccc2c1 | > 10 µM (inactive) | > 10 µM (inactive) | > 10 µM (inactive) | > 10 µM (inactive) | > 10 µM (inactive) |  | > 10 µM (inactive) | > 10 µM (inactive) | > 10 µM (inactive) | > 10 µM (inactive) | > 10 µM (inactive) | > 10 µM (inactive) | > 10 µM (inactive) | > 10 µM (inactive) | > 10 µM (inactive) | > 10 µM (inactive) |  | > 10 µM (inactive) | > 10 µM (inactive) | 
O=[N+]([O-])c1sc2ccc(Cl)cc2c1Nc1ccc(Cl)cc1 | > 100 µM (inactive) | > 100 µM (inactive) | > 100 µM (inactive) | > 100 µM (inactive) | > 100 µM (inactive) | > 100 µM (inactive) | > 100 µM (inactive) | > 100 µM (inactive) | > 100 µM (inactive) | > 100 µM (inactive) | > 100 µM (inactive) | > 100 µM (inactive) | > 100 µM (inactive) | > 100 µM (inactive) | > 100 µM (inactive) | > 100 µM (inactive) |  | 2.55 µM (inactive) | > 100 µM (inactive) | 
O=C(O)CCC(=O)Nc1ccc2c(c1)S(=O)(=O)N(CC(=O)O)C2=O | > 100 µM (inactive) | > 100 µM (inactive) | 21.9 µM (inactive) | > 100 µM (inactive) | > 100 µM (inactive) | > 100 µM (inactive) | > 100 µM (inactive) | > 100 µM (inactive) | > 100 µM (inactive) | > 100 µM (inactive) | > 100 µM (inactive) | > 100 µM (inactive) | > 100 µM (inactive) | > 100 µM (inactive) |  | > 100 µM (inactive) | > 100 µM (inactive) | > 100 µM (inactive) |  | > 100 µM (inactive)
C#Cc1cccc(N2C(=O)CCC2=O)c1 | 12.1 µM (inactive) | 2.65 µM (inactive) | 13.6 µM (inactive) | 6.73 µM (inactive) | 14.4 µM (inactive) | 18 µM (inactive) | 18.2 µM (inactive) | 18.9 µM (inactive) | 31.4 µM (inactive) | > 10 µM (inactive) | 2.77 µM (inactive) | 2.49 µM (inactive) | 21.5 µM (inactive) | 21.4 µM (inactive) |  | 17.3 µM (inactive) | 15.6 µM (inactive) | 13.1 µM (inactive) | 13.6 µM (inactive) | 
